pIC50: −log10 of the molar value.
Legend:
[1] = target: PIK3CD (Human) (UniProt O00329); test: Assessment of PIK3CD Kinase Activity
[2] = target: PIK3CG (human) (UniProt P48736); test: Assessment of PIK3CG Kinase Activity
[3] = target: PIK3CB (Human) (UniProt P42338); test: Assessment of PIK3CB Kinase Activity
[4] = target: PIK3CA (human) (UniProt P42336); test: Assessment of PIK3CA Kinase Activity
PIK3CA (human), sequence (P42336 whole entry, looked up): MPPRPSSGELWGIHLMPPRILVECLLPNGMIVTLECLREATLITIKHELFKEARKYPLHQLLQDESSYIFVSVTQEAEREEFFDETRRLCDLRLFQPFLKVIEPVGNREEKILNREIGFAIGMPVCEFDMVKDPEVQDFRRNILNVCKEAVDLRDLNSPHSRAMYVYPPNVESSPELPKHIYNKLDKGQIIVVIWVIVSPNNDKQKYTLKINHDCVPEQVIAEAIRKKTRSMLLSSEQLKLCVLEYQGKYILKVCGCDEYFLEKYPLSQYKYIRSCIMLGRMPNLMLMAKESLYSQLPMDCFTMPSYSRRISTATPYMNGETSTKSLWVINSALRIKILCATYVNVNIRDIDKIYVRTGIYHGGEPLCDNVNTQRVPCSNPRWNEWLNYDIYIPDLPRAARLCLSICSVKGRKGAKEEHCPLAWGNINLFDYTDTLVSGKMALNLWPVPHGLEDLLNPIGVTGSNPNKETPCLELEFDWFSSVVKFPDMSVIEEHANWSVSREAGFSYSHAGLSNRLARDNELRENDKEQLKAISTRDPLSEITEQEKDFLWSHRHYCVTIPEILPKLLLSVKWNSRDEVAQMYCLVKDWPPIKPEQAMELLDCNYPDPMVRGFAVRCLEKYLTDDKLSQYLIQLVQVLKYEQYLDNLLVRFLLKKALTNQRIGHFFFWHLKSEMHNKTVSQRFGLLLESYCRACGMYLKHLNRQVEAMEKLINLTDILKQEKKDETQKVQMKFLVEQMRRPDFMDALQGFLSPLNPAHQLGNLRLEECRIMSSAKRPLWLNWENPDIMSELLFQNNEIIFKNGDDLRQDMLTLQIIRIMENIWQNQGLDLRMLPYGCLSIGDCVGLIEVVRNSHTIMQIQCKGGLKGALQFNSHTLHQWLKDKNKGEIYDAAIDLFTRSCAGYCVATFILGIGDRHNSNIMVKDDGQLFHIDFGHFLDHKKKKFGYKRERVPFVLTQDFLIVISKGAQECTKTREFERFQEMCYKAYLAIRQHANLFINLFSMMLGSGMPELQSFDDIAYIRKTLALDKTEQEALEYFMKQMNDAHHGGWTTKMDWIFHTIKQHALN

PIK3CB (Human), sequence (P42338 whole entry, looked up): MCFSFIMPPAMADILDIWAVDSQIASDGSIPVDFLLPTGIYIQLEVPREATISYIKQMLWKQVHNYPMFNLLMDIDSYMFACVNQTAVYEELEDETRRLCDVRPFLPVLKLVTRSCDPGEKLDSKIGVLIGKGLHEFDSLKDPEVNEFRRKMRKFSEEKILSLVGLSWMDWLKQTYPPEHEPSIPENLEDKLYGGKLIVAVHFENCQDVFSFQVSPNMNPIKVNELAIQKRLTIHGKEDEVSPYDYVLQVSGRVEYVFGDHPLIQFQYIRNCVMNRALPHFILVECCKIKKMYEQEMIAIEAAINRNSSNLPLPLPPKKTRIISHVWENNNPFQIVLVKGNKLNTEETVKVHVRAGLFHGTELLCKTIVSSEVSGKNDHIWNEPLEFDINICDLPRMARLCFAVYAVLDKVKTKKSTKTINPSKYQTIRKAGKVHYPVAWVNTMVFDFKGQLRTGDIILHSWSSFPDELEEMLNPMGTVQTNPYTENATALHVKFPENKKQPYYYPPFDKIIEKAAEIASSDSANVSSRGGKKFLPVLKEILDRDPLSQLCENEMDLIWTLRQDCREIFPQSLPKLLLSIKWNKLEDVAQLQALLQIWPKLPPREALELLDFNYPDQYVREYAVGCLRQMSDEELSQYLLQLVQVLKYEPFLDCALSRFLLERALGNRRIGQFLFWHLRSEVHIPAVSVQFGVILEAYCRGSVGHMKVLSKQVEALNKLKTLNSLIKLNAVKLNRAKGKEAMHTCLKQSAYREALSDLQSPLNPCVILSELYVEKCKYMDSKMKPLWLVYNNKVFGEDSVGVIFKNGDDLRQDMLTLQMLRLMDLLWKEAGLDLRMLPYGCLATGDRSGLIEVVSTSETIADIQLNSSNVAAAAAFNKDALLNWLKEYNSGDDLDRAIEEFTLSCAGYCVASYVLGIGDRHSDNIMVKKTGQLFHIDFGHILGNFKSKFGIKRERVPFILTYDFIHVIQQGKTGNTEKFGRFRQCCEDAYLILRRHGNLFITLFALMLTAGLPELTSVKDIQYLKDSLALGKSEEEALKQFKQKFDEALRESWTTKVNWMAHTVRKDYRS
PIK3CD (Human), sequence (O00329 whole entry, looked up): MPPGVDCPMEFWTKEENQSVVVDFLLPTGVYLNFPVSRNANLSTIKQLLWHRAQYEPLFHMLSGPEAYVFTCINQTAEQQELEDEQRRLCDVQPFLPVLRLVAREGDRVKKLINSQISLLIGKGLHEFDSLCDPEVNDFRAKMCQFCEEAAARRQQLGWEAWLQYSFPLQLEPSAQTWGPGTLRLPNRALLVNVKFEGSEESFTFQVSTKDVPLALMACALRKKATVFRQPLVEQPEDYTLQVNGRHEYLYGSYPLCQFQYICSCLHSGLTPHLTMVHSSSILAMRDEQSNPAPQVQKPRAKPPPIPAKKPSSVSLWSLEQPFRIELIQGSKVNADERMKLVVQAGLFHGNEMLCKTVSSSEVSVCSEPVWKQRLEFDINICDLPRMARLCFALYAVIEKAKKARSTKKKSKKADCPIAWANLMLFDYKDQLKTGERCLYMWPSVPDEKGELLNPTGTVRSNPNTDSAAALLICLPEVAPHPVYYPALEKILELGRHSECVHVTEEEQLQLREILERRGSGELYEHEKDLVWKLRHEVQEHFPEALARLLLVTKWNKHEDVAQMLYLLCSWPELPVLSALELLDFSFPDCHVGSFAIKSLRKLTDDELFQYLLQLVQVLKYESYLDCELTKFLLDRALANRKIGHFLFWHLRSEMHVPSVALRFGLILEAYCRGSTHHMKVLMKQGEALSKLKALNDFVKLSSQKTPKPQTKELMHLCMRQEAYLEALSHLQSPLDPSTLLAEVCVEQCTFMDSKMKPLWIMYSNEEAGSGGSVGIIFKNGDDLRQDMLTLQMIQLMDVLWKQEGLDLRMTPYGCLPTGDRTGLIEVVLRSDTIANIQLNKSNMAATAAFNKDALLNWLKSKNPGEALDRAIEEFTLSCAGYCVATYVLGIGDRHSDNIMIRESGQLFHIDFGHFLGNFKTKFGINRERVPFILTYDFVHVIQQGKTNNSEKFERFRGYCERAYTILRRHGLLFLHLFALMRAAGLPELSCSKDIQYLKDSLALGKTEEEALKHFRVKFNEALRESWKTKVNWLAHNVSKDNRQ
PIK3CG (human), sequence (P48736 whole entry, looked up): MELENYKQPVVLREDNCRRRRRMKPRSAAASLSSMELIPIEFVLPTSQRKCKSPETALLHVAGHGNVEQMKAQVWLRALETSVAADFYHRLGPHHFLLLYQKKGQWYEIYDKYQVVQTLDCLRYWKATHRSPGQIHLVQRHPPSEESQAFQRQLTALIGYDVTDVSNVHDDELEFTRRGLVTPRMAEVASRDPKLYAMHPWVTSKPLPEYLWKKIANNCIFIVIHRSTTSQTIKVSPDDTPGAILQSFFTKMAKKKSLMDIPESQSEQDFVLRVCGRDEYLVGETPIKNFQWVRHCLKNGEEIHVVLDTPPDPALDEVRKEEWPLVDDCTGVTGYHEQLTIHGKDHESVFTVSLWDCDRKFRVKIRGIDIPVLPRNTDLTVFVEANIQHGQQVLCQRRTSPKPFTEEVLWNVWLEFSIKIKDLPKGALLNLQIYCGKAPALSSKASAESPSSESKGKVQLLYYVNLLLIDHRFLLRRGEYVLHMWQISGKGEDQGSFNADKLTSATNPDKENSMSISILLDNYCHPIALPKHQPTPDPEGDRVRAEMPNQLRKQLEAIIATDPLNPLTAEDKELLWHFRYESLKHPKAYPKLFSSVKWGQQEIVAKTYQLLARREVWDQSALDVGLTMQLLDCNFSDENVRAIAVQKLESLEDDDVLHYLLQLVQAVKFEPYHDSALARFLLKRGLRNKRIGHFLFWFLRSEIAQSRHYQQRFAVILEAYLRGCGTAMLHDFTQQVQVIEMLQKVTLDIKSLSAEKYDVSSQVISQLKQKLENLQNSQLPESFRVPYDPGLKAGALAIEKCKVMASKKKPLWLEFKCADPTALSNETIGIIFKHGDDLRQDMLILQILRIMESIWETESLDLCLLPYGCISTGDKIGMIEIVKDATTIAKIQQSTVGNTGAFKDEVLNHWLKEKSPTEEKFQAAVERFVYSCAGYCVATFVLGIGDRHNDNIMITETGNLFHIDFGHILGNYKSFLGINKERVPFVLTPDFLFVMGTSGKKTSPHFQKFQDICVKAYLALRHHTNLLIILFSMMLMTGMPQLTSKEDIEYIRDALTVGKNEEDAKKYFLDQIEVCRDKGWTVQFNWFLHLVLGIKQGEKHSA

SMILES | pIC50 [1] | pIC50 [2] | pIC50 [3] | pIC50 [4]
C[C@H](Nc1nc(N)ncc1C#N)c1cc2cccc(Cl)c2c(=O)n1-c1cc(F)ccc1F | > 7.00 | > 7.00 | 6.00 to 7.00 | 
Cc1cccc2cc([C@H](C)Nc3nc(N)ncc3C#N)n(-c3cccc(F)c3)c(=O)c12 | > 7.00 | > 7.00 | 6.00 to 7.00 | 
CCOc1ncc(-c2cnc(N)nc2N[C@@H](C)c2cc3cccc(Cl)c3c(=O)n2-c2ccccc2)s1 | > 7.00 | > 7.00 | 6.00 to 7.00 | 
COc1cc(-c2cccc3cc([C@H](C)Nc4nc(N)ncc4-c4cccnc4)n(-c4ccccc4)c(=O)c23)ccn1 | 6.00 to 7.00 | 6.00 to 7.00 | < 5.00 | 
C[C@H](Nc1nc(N)ncc1C#N)c1cc2cccc(Cl)c2c(=O)n1-c1ccon1 | > 7.00 | > 7.00 | 6.00 to 7.00 | 
C[C@H](Nc1nc(N)ncc1C#N)c1cc2cccc(Cl)c2c(=O)n1-c1cscn1 | > 7.00 | > 7.00 | > 7.00 | 
C[C@H](Nc1nc(N)ncc1C#N)c1cc2cccc(-c3cccc(S(C)(=O)=O)c3)c2c(=O)n1-c1ccccc1 | > 7.00 | > 7.00 | < 5.00 | 
COc1cc(-c2cccc3cc([C@H](C)Nc4nc(N)ncc4-c4ccncc4)n(-c4ccccc4)c(=O)c23)ccn1 | > 7.00 | > 7.00 | < 5.00 | 
CCn1c([C@H](C)Nc2nc(N)ncc2C#N)cc2cccc(Cl)c2c1=O | > 7.00 | > 7.00 | > 7.00 | 
C[C@H](Nc1nc(N)ncc1C#N)c1cc2cccc(-c3ccc(S(C)(=O)=O)cc3)c2c(=O)n1-c1ccccc1 | > 7.00 | > 7.00 | < 5.00 | 
C[C@H](Nc1cc(Cl)ncn1)c1cc2cccc(Cl)c2c(=O)n1-c1ccccc1 |  |  | < 5.00 | < 5.00
CC#Cc1cccc2cc([C@H](C)Nc3nc(N)ncc3C#N)n(-c3ccccc3)c(=O)c12 | > 7.00 | > 7.00 | 6.00 to 7.00 | 
Cc1ncc(-c2cccc3cc([C@H](C)Nc4nc(N)ncc4C#N)n(-c4ccccc4)c(=O)c23)cn1 | > 7.00 | > 7.00 | < 5.00 | 
C[C@H](Nc1nc(N)ncc1NC(=O)c1ccccc1)c1cc2cccc(Cl)c2c(=O)n1-c1ccccc1 |  |  | < 5.00 | < 5.00
C[C@H](Nc1nc(N)ncc1C#N)c1cc2cccc(-c3ccc(O)nc3)c2c(=O)n1-c1ccccc1 | > 7.00 | > 7.00 | < 5.00 | 
C[C@H](Nc1nc(N)ncc1C#N)c1cc2cccc(-c3cccc(NS(=O)(=O)N(C)C)c3)c2c(=O)n1-c1ccccc1 | > 7.00 | 6.00 to 7.00 | < 5.00 | 
COc1cc(-c2cccc3cc([C@H](C)Nc4nc(N)ncc4[N+](=O)[O-])n(-c4ccccc4)c(=O)c23)ccn1 | > 7.00 | > 7.00 | < 5.00 | 
Cc1cc(-c2cccc3cc([C@H](C)Nc4nc(N)ncc4C#N)n(-c4ccccc4)c(=O)c23)cn(C)c1=O | > 7.00 | > 7.00 | < 5.00 | 
C[C@H](Nc1nc(N)ncc1C#N)c1cc2cccc(-c3cccc(F)c3)c2c(=O)n1-c1ccccc1 | > 7.00 | > 7.00 | 6.00 to 7.00 | 
C[C@H](Nc1nc(N)ncc1-c1cscn1)c1cc2cccc(Cl)c2c(=O)n1-c1ccccc1 | > 7.00 | > 7.00 | 6.00 to 7.00 | 

SMILES | pIC50 [1] | pIC50 [2] | pIC50 [3] | pIC50 [4]
C[C@H](Nc1nc(N)ncc1C#N)c1cc2cccc(Cl)c2c(=O)n1-c1ccccc1F | > 7.00 | > 7.00 | 6.00 to 7.00 | 
COc1ccc(-c2cccc3cc([C@H](C)Nc4nc(N)ncc4C#N)n(C4CC4)c(=O)c23)cn1 | > 7.00 | > 7.00 | 6.00 to 7.00 | 
COc1cc(-c2cccc3cc([C@H](C)Nc4nc(N)ncc4C(=O)N4CCOCC4)n(-c4ccccc4)c(=O)c23)ccn1 |  |  | < 5.00 | < 5.00
C[C@H](Nc1nc(N)ncc1C#N)c1cc2cccc(-c3cncc(OC(F)F)c3)c2c(=O)n1-c1ccccc1 | > 7.00 | > 7.00 | < 5.00 | 
CNc1cc(-c2cccc3cc([C@H](C)Nc4nc(N)ncc4C#N)n(-c4ccccc4)c(=O)c23)ccn1 | > 7.00 | > 7.00 | < 5.00 | 
Cc1ncc(-c2cccc3cc([C@H](C)Nc4nc(N)ncc4C#N)n(-c4cccc(F)c4)c(=O)c23)cn1 | > 7.00 | > 7.00 | < 5.00 | 
COc1cc(-c2cccc3cc([C@H](C)Nc4nc(N)ncc4C(=O)N(C)CCO)n(-c4ccccc4)c(=O)c23)ccn1 |  |  | < 5.00 | < 5.00
C#Cc1cccc2cc([C@H](C)Nc3nc(N)ncc3C#N)n(-c3ccccc3)c(=O)c12 | > 7.00 | > 7.00 | 6.00 to 7.00 | 
C[C@H](Nc1nc(N)ncc1-c1ncco1)c1cc2cccc(Cl)c2c(=O)n1-c1ccccc1 | > 7.00 | > 7.00 | 6.00 to 7.00 | 
COc1cc(-c2cccc3cc([C@H](C)N)n(-c4ccccc4)c(=O)c23)cnc1C |  |  | 6.00 to 7.00 | 
C[C@H](Nc1nc(N)ncc1C(=O)N(C)C)c1cc2cccc(Cl)c2c(=O)n1-c1ccccc1 | > 7.00 | > 7.00 | 6.00 to 7.00 | 
C[C@H](Nc1nc(N)ncc1C#N)c1nc2cccc(Cl)c2c(=O)n1-c1ccccc1 | > 7.00 | > 7.00 | 6.00 to 7.00 | 
Cc1csc(-c2cnc(N)nc2N[C@@H](C)c2cc3cccc(Cl)c3c(=O)n2-c2ccccc2)n1 | > 7.00 | > 7.00 | 6.00 to 7.00 | 
C[C@H](Nc1nc(N)ncc1C#N)c1cc2cccc(-c3ccc(=O)n(C4CCCC4)c3)c2c(=O)n1-c1ccccc1 | > 7.00 | > 7.00 |  | 6.00 to 7.00
C[C@H](Nc1nc(N)ncc1C#N)c1cc2cccc(-c3ccc(F)cc3)c2c(=O)n1-c1ccccc1 | > 7.00 | > 7.00 |  | 6.00 to 7.00
C[C@H](Nc1nc(N)ncc1C#N)c1cc2cccc(-c3cccc(Cl)c3)c2c(=O)n1-c1ccccc1 | > 7.00 | > 7.00 |  | 6.00 to 7.00
C[C@H](Nc1nc(N)ncc1C#N)c1cc2cccc(-c3cncc(O)c3)c2c(=O)n1-c1ccccc1 | > 7.00 | > 7.00 |  | > 7.00
C[C@H](Nc1nc(N)ncc1C(=O)N(C)C)c1cc2cccc(-c3cnn(C)c3)c2c(=O)n1-c1ccccc1 | > 7.00 | > 7.00 | < 5.00 | 
C[C@H](Nc1nc(N)ncc1C#N)c1cc2cccc(Cl)c2c(=O)n1-c1ccc(OC(F)(F)F)cc1 | 6.00 to 7.00 | 6.00 to 7.00 |  | < 5.00
COc1cccc(-c2cccc3cc([C@H](C)Nc4nc(N)ncc4C#N)n(-c4ccccc4)c(=O)c23)n1 | > 7.00 | > 7.00 |  | < 5.00

SMILES | pIC50 [1] | pIC50 [2] | pIC50 [3] | pIC50 [4]
C[C@H](Nc1nc(N)ncc1-c1cccs1)c1cc2cccc(Cl)c2c(=O)n1-c1ccccc1 | > 7.00 | > 7.00 |  | < 5.00
C[C@H](Nc1nc(N)ncc1-c1cnn(C)c1)c1cc2cccc(Cl)c2c(=O)n1-c1ccccc1 | 6.00 to 7.00 | > 7.00 |  | < 5.00
C[C@H](Nc1nc(N)ncc1C#N)c1cc2cccc(Cl)c2c(=O)n1-c1ccc(F)cc1F | > 7.00 | > 7.00 | 6.00 to 7.00 | 
C#Cc1cnc(N)nc1N[C@@H](C)c1cc2cccc(Cl)c2c(=O)n1-c1ccccc1 | > 7.00 | > 7.00 | 6.00 to 7.00 | 
CC(C)n1c([C@H](C)Nc2nc(N)ncc2C#N)cc2cccc(Cl)c2c1=O | > 7.00 | > 7.00 | > 7.00 | 
C[C@H](Nc1nc(N)ncc1C#N)c1cc2cccc(Cl)c2c(=O)n1-c1ccc(Cl)cc1 | > 7.00 | > 7.00 | 6.00 to 7.00 | 
Cc1cncc(-c2cccc3cc([C@H](C)Nc4nc(N)ncc4C#N)n(-c4cccc(F)c4)c(=O)c23)c1 | > 7.00 | > 7.00 |  | 6.00 to 7.00
C[C@H](Nc1nc(N)ncc1C#N)c1cc2cccc(Cl)c2c(=O)n1-c1cccc(F)c1 | > 7.00 | > 7.00 | 6.00 to 7.00 | 
COc1cc(-c2cccc3cc([C@H](C)Nc4nc(N)ncc4-c4cnc(C)s4)n(-c4ccccc4)c(=O)c23)ccn1 | > 7.00 | > 7.00 |  | 6.00 to 7.00
C[C@H](Nc1nc(N)ncc1C#N)c1cc2cccc(-c3cncc(N(C)S(C)(=O)=O)c3)c2c(=O)n1-c1ccccc1 | > 7.00 | > 7.00 |  | 6.00 to 7.00
Cc1nc(-c2cnc(N)nc2N[C@@H](C)c2cc3cccc(Cl)c3c(=O)n2-c2ccccc2)sc1C | 6.00 to 7.00 | 6.00 to 7.00 |  | < 5.00
C[C@H](Nc1nc(N)ncc1C#N)c1cc2cccc(Cl)c2c(=O)n1-c1ccc2c(c1)OCO2 | 6.00 to 7.00 | > 7.00 |  | < 5.00
C[C@H](Nc1nc(N)ncc1C#N)c1cc2cccc(-c3ccnnc3)c2c(=O)n1-c1ccccc1 | > 7.00 | 6.00 to 7.00 | < 5.00 | 
CCOc1nc(-c2cnc(N)nc2N[C@@H](C)c2cc3cccc(Cl)c3c(=O)n2-c2ccccc2)cs1 | > 7.00 | > 7.00 | > 7.00 | 
COc1cncc(-c2cccc3cc([C@H](C)Nc4nc(N)ncc4C(N)=O)n(-c4ccccc4)c(=O)c23)c1 | > 7.00 | > 7.00 |  | 6.00 to 7.00
Cc1ccc(-c2cccc3cc([C@H](C)Nc4nc(N)ncc4C#N)n(-c4ccccc4)c(=O)c23)cn1 | > 7.00 | > 7.00 | < 5.00 | 
Cc1cccc(-c2cccc3cc([C@H](C)Nc4nc(N)ncc4C#N)n(-c4ccccc4)c(=O)c23)c1 | > 7.00 | > 7.00 |  | 6.00 to 7.00
COc1ccc(-c2cccc3cc([C@H](C)Nc4nc(N)ncc4C#N)n(-c4ccccc4)c(=O)c23)nc1 | > 7.00 | > 7.00 | < 5.00 | 
C[C@H](Nc1nc(N)ncc1C#N)c1cc2cccc(Cl)c2c(=O)n1-c1ccccc1 | > 7.00 | > 7.00 | > 7.00 | 
C[C@H](Nc1nc(N)ncc1-c1cncs1)c1cc2cccc(Cl)c2c(=O)n1-c1ccccc1 | > 7.00 | > 7.00 | 6.00 to 7.00 | 

From the Kinase Knowledgebase extract (Sharma et al. 2016)
